Patent US20070056049A1, “p53 and VEGF regulate tumor growth of NOS2 expressing cancer cells” (The Govt. of the USA as represented by the Secretary of the …, priority 1998, published 2007)
Entries after “also recorded” stand apart in the source; their conditions may differ.

Key:
[1] = test system: VEGF secretion of NOS2-expressing Calu-6 cells; experiment: VEGF secretion into culture medium of NOS2-expressing Calu-6 cell clones (immunoprecipitation, western blot); format: cell-based, human; details: 2 mM L-NMA, 48 hr, 3×10^6 cells in 4 ml of medium
Description: FIG. 7a-b: VEGF protein concentrations are higher (4.3 and 7.1-fold) in the culture medium of NOS2-expressing Calu-6 cells clones than in the culture medium of vector controls (A) and correlate with increased VEGF mRNA expression (B). […] 3×10^6 cells were cultured in 4 ml of medium for 48 hr±2 mM L-NMA. VEGF was immunoprecipitated out of 1 ml of culture medium. The 4.4 kb VEGF mRNA was detected by northern blotting was a 522 bp ^32P-labeled cDNA (exon 1-7), and the 7.5 kb polycistronic mRNA encoding NOS2 with the full-length human NOS2 cDNA (Geller et al., Proc. Natl. Acad. Sci. U.S.A. 90:3491-3495 (1993); Tzeng et al., Proc. Nat'l Acad. Sci USA 92:11771-11775 (1995)).
NOS2 and VEGF western blot analysis: Cell lysates for western blotting were prepared by solubilization of cell pellets in RIPA butter. VEGF protein concentrations were determined as follows. Five μg of rabbit polyclonal anti-VEGF antibody (Santa Cruz Biotechnology) were added to either 1 mg of cellular protein extract or 1 ml of cell culture medium, incubated for 1 hr at 8-10° C., and then mixed with protein A-sepharose (10 mg) for 1 hr. […] After transfer to an Immunobilon-P membrane (Millipore), NOS2 and VEGF protein were detected with either a polyclonal anti-NOS2 antibody (Merck), 1:40,000 diluted, or a polyclonal anti-VEGF, 1:1000 diluted, as described (Ambs et al., Cancer Res. 58:334-341 (1998)).

[2] = test system: NOS2-expressing Calu-6 cells; experiment: Tumor xenoplantation of NOS2-expressing Calu-6 cells in athymic nude mice; format: in vivo; details: 1% AG; p53 null Calu-6 cells, subcutaneous tumors; p<0.05, two-tailed Student's t-test
Source text: (§1) FIG. 2a-d: Tumor probability of NOS2-expressing human carcinoma cells lines is dependent on the p53 status. 3×10^6 cells of NOS2-expressing Calu-6 and LoVo carcinoma cells, and the vector controls (BaglacZ), were inoculated into 10 athymic nude mice, respectively. NOS2-expressing LoVo cells, which have two wild-type p53 alleles, grow slower (A) and produce smaller tumors (C) than vector controls (BaglacZ). In contrast, NOS2-expressing Calu-6 cells, which lack expression of functional p53, grow faster (B) and produce larger tumors (D) than the vector controls.
(§2) A. Methods Tumor xenoplantation: Suspensions of 3×10^5 to 5×10^6 cells in a volume of 0.2 ml were injected at a single subcutaneous site into athymic nude mice previously irradiated with 350 rads. Either 10 or 20 animals were injected per experiment. A nodule was scored as a tumor when it measured 125 mm^3 or more by its largest two dimensions.
(§3) Statistical Analysis: The Kaplan-Meier survival analysis was used to calculate the statistical significance of tumor probabilities in different treatment groups. Other comparisons were carried out by the two-tailed Student's t-test. Relationships are considered statistically significant when p<0.05.

[3] = test system: NOS2-expressing HT-29 colon carcinoma cells; experiment: Tumor xenoplantation of NOS2-expressing HT-29 colon carcinoma cells in athymic nude mice; format: in vivo; details: 1% AG in the drinking water; mutant p53 HT-29 cells; Kaplan-Meier analysis p=0.002
Description: 3×10^5 cells of NOS2 (Retro-HNOS) and β-galactosidase (BaglacZ) expressing HT-29 cells were inoculated into 40 athymic nude mice, respectively. Half of the animals in both groups received 1% AG in the drinking water. […] This effect is abolished (p=0.002) through treatment with 1% AG.
as §2, §3

[4] = test system: NOS2-expressing LoVo cells; experiment: Tumor xenoplantation of NOS2-expressing LoVo cells in athymic nude mice; format: in vivo; details: wild-type p53 LoVo cells, slow-growing tumors
Source text: as §1, §2, §3

With `CNC(=N)NCCC[C@H](N)C(=O)O` [L-NMA, NG-monomethyl-L-arginine] the “VEGF secretion into the culture medium” value [1] was “reduced the VEGF secretion; also recorded: decreases VEGF secretion”.
In the case of `N=C(N)NN` [aminoguanidine], the “tumor growth of NOS2-expressing Calu-6 cells” value [2] is reported as “significantly reduced the tumor growth; also recorded: inhibited; also recorded: suppressed the tumor growth”, the “tumor probability / tumor growth of NOS2-expressing HT-29 cells” value [3] is reported as “significantly reduced the tumor growth; also recorded: reverses the growth stimulatory effect of NOS2” and the “tumor growth of NOS2-expressing LoVo cells” value [4] is reported as “lack of an aminoguanidine effect”.
